From DBAASP
In brackets after ≈: the same amount, converted by molar mass. Several values for one entry are separate records, joined by “and”; a condition that tells them apart may be missing. Equal entries are not always repeated. One block for each compound: values may come before it.

Key:
Test in all cases: ≥ marks a high value that may be exact or a test limit, other limits are often not marked, values filed in µg/mL are converted to µM
[1] = tested on: Staphylococcus aureus USA 300
[2] = tested on: Staphylococcus epidermidis ATCC 35984
[3] = tested on: Staphylococcus aureus ATCC 29213
[4] = tested on: Escherichia coli ATCC 25922
[5] = tested on: Candida albicans ATCC 2002
[6] = tested on: Staphylococcus aureus ATCC 25923
[7] = tested on: Salmonella enterica subsp. enterica serovar Enteritidis
[8] = tested on: Pseudomonas aeruginosa CMCCB 10104
[9] = tested on: Klebsiella pneumoniae 913
[10] = tested on: Enterobacter cloacae 2524
Acinetobacter baumannii = tested on: Acinetobacter baumannii
[11] = tested on: Pseudomonas aeruginosa 4677
Escherichia coli 170 = tested on: Escherichia coli 170
[12] = tested on: Pseudomonas aeruginosa ATCC 9027
Staphylococcus aureus = tested on: Staphylococcus aureus
Micrococcus luteus = tested on: Micrococcus luteus
Escherichia coli = tested on: Escherichia coli
[13] = tested on: Candida albicans ATCC 90028
Listeria innocua = tested on: Listeria innocua
[14] = tested on: Staphylococcus aureus USA 100
[15] = tested on: Staphylococcus aureus ATCC 33591
[16] = tested on: Pseudomonas aeruginosa ATCC 27853
[17] = tested on: Salmonella enterica subsp. enterica serovar Typhimurium ATCC 14028
[18] = tested on: Candida albicans ATCC 64550
[19] = tested on: Micrococcus luteus ATCC 10240
[20] = tested on: Staphylococcus aureus TK784
[21] = tested on: Staphylococcus epidermidis ATCC 12228
[22] = tested on: Bacillus subtilis ATCC 6633
[23] = tested on: Klebsiella pneumoniae ATCC 10031
[24] = tested on: Staphylococcus aureus ATCC 6538P
[25] = tested on: Shigella dysenteriae ATCC 9752
Pseudomonas aeruginosa = tested on: Pseudomonas aeruginosa
[26] = tested on: Candida parapsilosis CCM 8260
Candida krusei CCM 8271 = tested on: Candida krusei CCM 8271
[27] = tested on: Staphylococcus aureus PCM 2054
Escherichia coli B = tested on: Escherichia coli B
[28] = tested on: Candida glabrata CCM 8270
[29] = tested on: Escherichia coli PCM 2057
[30] = tested on: Candida albicans F7-39/IDE99
Bacillus subtilis 168 = tested on: Bacillus subtilis 168
[31] = tested on: Staphylococcus epidermidis PCM 2118
[32] = tested on: Staphylococcus epidermidis PCM 521
[33] = tested on: Staphylococcus aureus PMC 1650

MIC [15]: ≥ 259 µM | MIC [2]: 8.1 µM (≈ 16 µg/mL) | MIC [6]: > 259 µM | MIC [16]: 1.43 µM (≈ 2.83 µg/mL)
Structure (SMILES): CC[C@H](C)[C@H](NC(=O)[C@H](CCCCN)NC(=O)[C@@H](NC(=O)[C@H](Cc1ccccc1)NC(=O)[C@H](C)NC(=O)[C@H](CCCCN)NC(=O)CNC(=O)[C@H](Cc1ccccc1)NC(=O)[C@H](CCCCN)NC(=O)[C@H](CCCCN)NC(=O)[C@H](C)NC(=O)[C@H](CCCCN)NC(=O)[C@H](CCCCN)NC(=O)[C@@H](N)CC(C)C)C(C)C)C(=O)N[C@@H](CC(C)C)C(=O)N[C@@H](CCCCN)C(=O)N[C@@H](CCCCN)C(N)=O [LKKAKKFGKAFVKILKK]

MIC [17]: 27.2 µM (≈ 40 µg/mL) | MIC [18]: ≥ 100 µM | MIC [19]: 0.885 µM (≈ 1.3 µg/mL) | MIC [20]: 3.4 µM (≈ 5 µg/mL) | MIC [4]: 6.81 µM (≈ 9.99 µg/mL) | MIC [21]: 0.885 µM (≈ 1.3 µg/mL) | MIC [22]: 0.885 µM (≈ 1.3 µg/mL) | MIC [23]: 13.6 µM (≈ 20 µg/mL) | MIC [24]: 0.885 µM (≈ 1.3 µg/mL) | MIC [16]: 6.81 µM (≈ 9.99 µg/mL) | MIC [25]: 6.81 µM (≈ 9.99 µg/mL)
Structure (SMILES): CC(C)C[C@H](NC(=O)[C@H](Cc1c[nH]c2ccccc12)NC(=O)[C@H](CCCCN)NC(=O)[C@H](CC(C)C)NC(=O)[C@H](CC(C)C)NC(=O)[C@H](Cc1c[nH]c2ccccc12)NC(=O)[C@H](CCCCN)NC(=O)[C@H](CC(C)C)NC(=O)[C@@H](N)CC(C)C)C(=O)N[C@@H](CCCCN)C(=O)N[C@@H](CCCCN)C(N)=O [LLKWLLKWLKK]

MIC (Pseudomonas aeruginosa): 15.8 µM (≈ 27.2 µg/mL) | MIC [26]: 29 µM (≈ 50 µg/mL) | MIC (Candida krusei CCM 8271): 29 µM (≈ 50 µg/mL) | MIC [27]: 29 µM (≈ 50 µg/mL) | MIC (Staphylococcus aureus): 14.3 µM (≈ 24.6 µg/mL) | MIC (Escherichia coli B): 1.7 µM (≈ 2.93 µg/mL) | MIC [28]: 29 µM (≈ 50 µg/mL) | MIC [29]: 7.25 µM (≈ 12.5 µg/mL) | MIC [30]: 9.1 µM (≈ 15.7 µg/mL) | MIC (Bacillus subtilis 168): 0.8 µM (≈ 1.38 µg/mL) | MIC [31]: 3.62 µM (≈ 6.25 µg/mL) | MIC [32]: 7.25 µM (≈ 12.5 µg/mL) | MIC [33]: 14.5 µM (≈ 25 µg/mL)
Structure (SMILES): CC[C@H](C)[C@H](NC(=O)[C@H](CCCCN)NC(=O)CNC(=O)[C@H](CC(C)C)NC(=O)[C@@H](NC(=O)[C@H](CCCCN)NC(=O)[C@H](CCCCN)NC(=O)[C@H](Cc1c[nH]c2ccccc12)NC(=O)[C@H](CC(N)=O)NC(=O)[C@@H](N)C(C)C)C(C)C)C(=O)N[C@H](C(=O)N[C@@H](CCCCN)C(=O)N[C@H](C(=O)N[C@@H](C)C(=O)N[C@@H](CCCCN)C(N)=O)C(C)C)[C@@H](C)CC [VNWKKVLGKIIKVAK]

The remaining lines, values behind:

Structure (SMILES): CC[C@H](C)[C@H](NC(=O)CN)C(=O)N[C@H](C(=O)N[C@@H](CCCCN)C(=O)N[C@H](C(=O)N[C@H](C(=O)N[C@@H](CCCCN)C(=O)N[C@@H](CO)C(=O)N[C@@H](CC(C)C)C(=O)N[C@H](C(=O)N[C@@H](CCC(=O)O)C(=O)N[C@@H](CCC(N)=O)C(=O)N[C@@H](Cc1ccccc1)C(=O)N[C@H](C(=O)NCC(=O)N[C@@H](CCCCN)C(=O)O)[C@@H](C)O)[C@@H](C)CC)[C@@H](C)CC)C(C)C)[C@@H](C)CC [GIIKVIKSLIEQFTGK]
MIC [1]: ≥ 64 µM | MIC [2]: ≥ 42 µM

Structure (SMILES): CC[C@H](C)[C@H](NC(=O)[C@H](CCCCN)NC(=O)[C@H](CCCCN)NC(=O)CNC(=O)[C@@H](NC(=O)CNC(=O)[C@H](CC(C)C)NC(=O)[C@@H](NC(=O)CNC(=O)[C@H](CO)NC(=O)[C@H](CC(C)C)NC(=O)[C@H](CC(C)C)NC(=O)CN)C(C)C)C(C)C)C(=O)N[C@H](C(=O)N[C@H]1CSSC[C@@H](C(=O)O)NC(=O)[C@H](CC(C)C)NC(=O)CNC(=O)[C@H](CO)NC(=O)[C@H](CC(C)C)NC(=O)CNC1=O)C(C)C [GLLSGVLGVGKKIVCGLSGLC]
MIC [3]: 11.5 µM (≈ 22.6 µg/mL) | MIC [4]: 2.63 µM and 5.73 µM | MIC [5]: 2.63 µM (≈ 5.19 µg/mL) | MIC [6]: 5.27 µM (≈ 10.4 µg/mL) | MIC [7]: ≥ 64.9 µM | MIC [8]: 5.27 µM (≈ 10.4 µg/mL)

Structure (SMILES): CC[C@H](C)[C@H](N)C(=O)N[C@@H](C)C(=O)N[C@@H](CO)C(=O)N[C@@H](CCCCN)C(=O)N[C@H](C(=O)N[C@@H](C)C(=O)N[C@@H](CC(N)=O)C(=O)N[C@H](C(=O)N[C@H](C(=O)N[C@@H](CCC(N)=O)C(=O)N[C@@H](CCCCN)C(=O)N[C@@H](CC(C)C)C(=O)N[C@@H](CCCCN)C(=O)N[C@@H](CCCN=C(N)N)C(=O)N[C@@H](CCCCN)C(=O)N[C@@H](C)C(=O)N[C@@H](CCCCN)C(=O)N[C@@H](CC(N)=O)C(=O)N[C@@H](C)C(=O)N[C@H](C(=O)O)C(C)C)C(C)C)[C@@H](C)O)C(C)C [IASKVANTVQKLKRKAKNAV]
MIC [9]: ≥ 50 µM | MIC [10]: ≥ 50 µM | MIC (Acinetobacter baumannii): ≥ 50 µM | MIC [11]: ≥ 50 µM | MIC [4]: 25 µM (≈ 54.2 µg/mL) | MIC (Escherichia coli 170): ≥ 50 µM

Structure (SMILES): NCCCCC(N)C(=O)NC(Cc1ccc(O)cc1)C(=O)NC(CCCN=C(N)N)C(=O)O (stereo unspecified) [KYR]
MIC [12]: > 100 µM | MIC (Staphylococcus aureus): 1 µM (≈ 0.466 µg/mL) | MIC [1]: ≥ 100 µM | MIC (Micrococcus luteus): 2 µM (≈ 0.931 µg/mL) | MIC (Escherichia coli): 1 µM (≈ 0.466 µg/mL) | MIC [13]: ≥ 100 µM | MIC (Listeria innocua): 1 µM (≈ 0.466 µg/mL) | MIC [14]: ≥ 100 µM | MIC [7]: 1 µM (≈ 0.466 µg/mL)
